From US5409932A, “Piperazine-substituted pyrroloanthracenes” (Bayer AG, priority 1993, dated 1995) come the findings set out here.

Bounds are passed on as bounds.

In the first assay the test system is human T cells. Put plainly: Inhibition of 5-HT-dependent T Cell Proliferation. The class given is cell-based. The following applies: Homo sapiens, T-cell, monocyte-free human T cells stimulated with PWM and 5-HT; 3H-thymidine incorporation; 7 days. The source says:
The in vitro activity of the compounds according to the invention results from their capability to inhibit T cell proliferation, which is previously stimulated by serotonin.
Inhibition of 5-HT-dependent T Cell Proliferation
Peripheral mononuclear blood cells (PBMC) are obtained from the buffy coat of the blood of healthy subjects. After isolation by means of isolymph gradients (Pharmacia), the PBMC are washed twice and used directly. Purified T cells are obtained by E rosette formation with sheep erythrocytes [cf. Blue, M.-L. , J. F. Daley, H. Levine, K. A. Craig and S. F. Schlossmann, 1986, Biosynthesis and surface expression of T8 by peripheral blood T4+cells in vitro, J. Immunol. 137, 1202]. Monocytes are partially removed by adhesion to tissue culture plates or flasks. PBMC, T cells or purified T cells (depleted in monocytes) at 5×10^5 /ml, 100 μl/well are cultured in RPMI 1640 medium with 10% fetal calf serum (GIBCO) and L-glutamine in 96-well microculture plates (Becton--Dickinson)under a 5% CO2 atmosphere at 37° C. for 7 days. The cultures are treated with 1 μCi of ^3 H-thymidine for 6 h on the 7th day and collected on filter paper, and the incorporated radioactivity is determined by means of liquid scintillation counting.
The test substances are dissolved in 10 mM HCl in order to achieve a final concentration of 1 mM in each case. The compounds are diluted serially 3×with medium in order to obtain a final concentration between 33 μM-0.1 μM. PWM (1:200, pokeweed mitogen) and 5-HT (100 μm, serotonin), which contain the test substances, are added to monocyte-free human T cells. The positive control (maximum proliferation) is obtained from cultures containing T cells, PWM and 5-HT. The negative control (minimal proliferation) is obtained from cultures containing T cells and PWM without 5-HT. The inhibitory activity of the test substances is expressed as the IC50 in μM. (see also WO 92/04015)
In general terms: Dividing cells build labelled thymidine or BrdU into new DNA.
Regarding `O=C1C2C3c4ccccc4C(c4ccccc43)C2C(=O)N1CCCN1CCN(c2ccc(F)cc2)CC1` (centres unmarked) [Example 1, 13-{3-[4-(4-Fluorophenyl)piperazin-1-yl]-propyl}-9,10-dihydro-9,10[3', 4']-pyrroloanthracene-12,14(11H,15H) dione], the IC50 is > 10 µM.
With `O=C1C2C3c4ccccc4C(c4ccccc43)C2C(=O)N1CCN1CCN(c2ccccc2)CC1` (centres unmarked) [Example 3], the IC50 is > 10 µM.
`O=C1C2C3c4ccccc4C(c4ccccc43)C2C(=O)N1CCCCN1CCN(c2ccccc2)CC1` (centres unmarked) [Example 4]: inhibition was half-maximal at 5 µM (IC50).
The same measure, in the same setting: the result for `O=C1C2C3c4ccccc4C(c4ccccc43)C2C(=O)N1CCCCN1CCN(c2ccc(F)cc2)CC1` (centres unmarked) [Example 5] reads > 10 µM; that for `O=C1C2C3c4ccccc4C(c4ccccc43)C2C(=O)N1CCCCN1CCN(c2ccccc2F)CC1` (centres unmarked) [Example 6], > 10 µM; that for `O=C1C2C3c4ccccc4C(c4ccccc43)C2C(=O)N1CCCN1CCN(c2ccccc2)CC1` (centres unmarked) [Example 7], > 10 µM.
Still for that read-out and setting: then `Cc1ccccc1N1CCN(CCCCN2C(=O)C3C4c5ccccc5C(c5ccccc54)C3C2=O)CC1` (centres unmarked) [Example 8], with > 10 µM.
Turning to `O=C1C2C3c4ccccc4C(c4ccccc43)C2C(=O)N1CCCN1CCN(c2ccc(C(F)(F)F)cc2)CC1` (centres unmarked) [Example 10], the IC50 is > 10 µM.
Same read-out and setting: then `COc1ccc(N2CCN(CCCN3C(=O)C4C5c6ccccc6C(c6ccccc65)C4C3=O)CC2)cc1` (centres unmarked) [Example 12], with > 10 µM.
As to `O=C1C2C3c4ccccc4C(c4ccccc43)C2C(=O)N1CCCN1CCN(c2cccc(Cl)c2)CC1` (centres unmarked) [Example 13], the IC50 is > 10 µM.
Still for that read-out and setting: then `Cc1cccc(N2CCN(CCCN3C(=O)C4C5c6ccccc6C(c6ccccc65)C4C3=O)CC2)c1` (centres unmarked) [Example 14], with > 10 µM.
With `O=C1C2C3c4ccccc4C(c4ccccc43)C2C(=O)N1CCCN1CCN(c2cccc(C(F)(F)F)c2)CC1` (centres unmarked) [Example 15], the IC50 was > 10 µM.
Consider `COc1cccc(N2CCN(CCCN3C(=O)C4C5c6ccccc6C(c6ccccc65)C4C3=O)CC2)c1` (centres unmarked) [Example 16], for which the concentration for half-maximal inhibition (IC50) is > 10 µM.
Still for that read-out and setting: then `O=C1C2C3c4ccccc4C(c4ccccc43)C2C(=O)N1CCCN1CCN(c2ccccc2Cl)CC1` (centres unmarked) [Example 17], with > 10 µM.
For `O=C1C2C3c4ccccc4C(c4ccccc43)C2C(=O)N1CCCN1CCN(c2ccccc2F)CC1` (centres unmarked) [Example 18], the 50% inhibitory concentration (IC50) is > 10 µM.
Consider `Cc1ccccc1N1CCN(CCCN2C(=O)C3C4c5ccccc5C(c5ccccc54)C3C2=O)CC1` (centres unmarked) [Example 19], for which the IC50 was > 10 µM.
Turning to `CCc1ccccc1N1CCN(CCCN2C(=O)C3C4c5ccccc5C(c5ccccc54)C3C2=O)CC1` (centres unmarked) [Example 20], the IC50 was > 10 µM.
Still for that read-out and setting: the result for `COc1ccccc1N1CCN(CCCN2C(=O)C3C4c5ccccc5C(c5ccccc54)C3C2=O)CC1` (centres unmarked) [Example 21] reads > 10 µM.
Turning to `CCOc1ccccc1N1CCN(CCCN2C(=O)C3C4c5ccccc5C(c5ccccc54)C3C2=O)CC1` (centres unmarked) [Example 22], the IC50 is > 10 µM.
The same measure, in the same setting: then `Cc1cccc(C)c1N1CCN(CCCN2C(=O)C3C4c5ccccc5C(c5ccccc54)C3C2=O)CC1` (centres unmarked) [Example 23], with > 10 µM; and `Cc1ccc(N2CCN(CCCN3C(=O)C4C5c6ccccc6C(c6ccccc65)C4C3=O)CC2)c(C)c1` (centres unmarked) [Example 25], with > 10 µM.
For the compound `COc1ccc(N2CCN(CCCN3C(=O)C4C5c6ccccc6C(c6ccccc65)C4C3=O)CC2)cc1OC` (centres unmarked) [Example 28], the IC50 is > 10 µM.
Same read-out and setting: the result for `CC12c3ccccc3C(c3ccccc31)C1C(=O)N(CCCN3CCN(c4ccc(F)cc4)CC3)C(=O)C12` (centres unmarked) [Example 31] reads > 10 µM; that for `O=C1C2C3c4ccccc4C(CO)(c4ccccc43)C2C(=O)N1CCCN1CCN(c2ccccc2)CC1` (centres unmarked) [Example 32], > 10 µM; that for `O=C1C2C3c4ccccc4C(Cl)(c4ccccc43)C2C(=O)N1CCCN1CCN(c2ccccc2)CC1` (centres unmarked) [Example 34], > 10 µM.
Take `O=C1C2C3c4ccccc4C(Cl)(c4ccccc43)C2C(=O)N1CCCN1CCN(c2ccc(F)cc2)CC1` (centres unmarked) [Example 35]: the half-maximal inhibitory concentration (IC50) was > 10 µM.
`N#CC12c3ccccc3C(c3ccccc31)C1C(=O)N(CCCN3CCN(c4ccc(F)cc4)CC3)C(=O)C12` (centres unmarked) [Example 36]: the IC50 was > 10 µM.
The same measure, in the same setting: the result for `C=CC12c3ccccc3C(c3ccccc31)C1C(=O)N(CCCN3CCN(c4ccc(F)cc4)CC3)C(=O)C12` (centres unmarked) [Example 37] reads > 10 µM; that for `O=C1C2C3c4ccccc4C(C=Cc4ccccc4)(c4ccccc43)C2C(=O)N1CCCN1CCN(c2ccc(F)cc2)CC1` (centres unmarked) [Example 38], > 10 µM.
For `O=C1C2C(C(=O)N1CCCN1CCN(c3ccc(F)cc3)CC1)C1(Br)c3ccccc3C2(Br)c2ccccc21` (centres unmarked) [Example 45], the IC50 is > 10 µM.
On to `O=C1C2C3c4ccccc4C(CCl)(c4ccccc43)C2C(=O)N1CCCN1CCN(c2ccc(F)cc2)CC1` (centres unmarked) [Example 48], for which the 50% inhibitory concentration (IC50) amounted to 10 µM.
With `O=C1C2C3c4ccccc4C(c4ccccc4)(c4ccccc43)C2C(=O)N1CCCN1CCN(c2ccc(F)cc2)CC1` (centres unmarked) [Example 49], the IC50 was > 50 µM.
`O=C1N(CCCN2CCN(c3ccc(F)cc3)CC2)C(=O)C2(Cl)C3c4ccccc4C(c4ccccc43)C12Cl` (centres unmarked) [Example 51] displayed a half-inhibitory concentration (IC50) of 50 µM.
Same read-out and setting: the result for `Clc1ccccc1N1CCN(CCCCN2CC3C4c5ccccc5C(c5ccccc54)C3C2)CC1` (centres unmarked) [Example 65] reads 0.5 µM; that for `Clc1cccc(N2CCN(CCCCN3CC4C5c6ccccc6C(c6ccccc65)C4C3)CC2)c1` (centres unmarked) [Example 66], 2 µM.
Same read-out and setting: the result for `Clc1ccc(N2CCN(CCCCN3CC4C5c6ccccc6C(c6ccccc65)C4C3)CC2)cc1` (centres unmarked) [Example 67] reads 2 µM; that for `Clc1ccc(N2CCN(CCCCN3CC4C5c6ccccc6C(c6ccccc65)C4C3)CC2)cc1Cl` (centres unmarked) [Example 68], 5 µM.
Same read-out and setting: then `Fc1ccc(N2CCN(CCCCN3CC4C5c6ccccc6C(c6ccccc65)C4C3)CC2)cc1` (centres unmarked) [Example 69], with 0.6 µM.
`COc1ccc(N2CCN(CCCCN3CC4C5c6ccccc6C(c6ccccc65)C4C3)CC2)cc1` (centres unmarked) [Example 70]: the midpoint of inhibition, the IC50, lay at 0.5 µM. This IC50 and that of the compound before are within 1.5-fold of each other.
`FC(F)(F)c1ccc(N2CCN(CCCCN3CC4C5c6ccccc6C(c6ccccc65)C4C3)CC2)cc1` (centres unmarked) [Example 73] had a half-maximal inhibitory concentration (IC50) of 2 µM.
The same measure, in the same setting: the result for `FC(F)(F)c1ccc(N2CCN(CCCN3CC4C5c6ccccc6C(c6ccccc65)C4C3)CC2)cc1` (centres unmarked) [Example 75] reads 2 µM; that for `Cc1ccc(N2CCN(CCCN3CC4C5c6ccccc6C(c6ccccc65)C4C3)CC2)cc1` (centres unmarked) [Example 76], 2 µM.
Compound `COc1ccc(N2CCN(CCCN3CC4C5c6ccccc6C(c6ccccc65)C4C3)CC2)cc1` (centres unmarked) [Example 77] showed a 50% inhibitory concentration (IC50) of 7 µM.
For the compound `Clc1cccc(N2CCN(CCCN3CC4C5c6ccccc6C(c6ccccc65)C4C3)CC2)c1` (centres unmarked) [Example 78], the half-maximal inhibitory concentration (IC50) was 5 µM.
On the same count and under the same terms, the result for `Cc1cccc(N2CCN(CCCN3CC4C5c6ccccc6C(c6ccccc65)C4C3)CC2)c1` (centres unmarked) [Example 79] reads 1 µM; that for `FC(F)(F)c1cccc(N2CCN(CCCN3CC4C5c6ccccc6C(c6ccccc65)C4C3)CC2)c1` (centres unmarked) [Example 80], 5 µM.
On the same count and under the same terms, then `Fc1ccccc1N1CCN(CCCN2CC3C4c5ccccc5C(c5ccccc54)C3C2)CC1` (centres unmarked) [Example 83], with 7 µM; and `Cc1ccccc1N1CCN(CCCN2CC3C4c5ccccc5C(c5ccccc54)C3C2)CC1` (centres unmarked) [Example 84], with 2 µM.
The same measure, in the same setting: the result for `CCc1ccccc1N1CCN(CCCN2CC3C4c5ccccc5C(c5ccccc54)C3C2)CC1` (centres unmarked) [Example 85] reads 3 µM; that for `COc1ccccc1N1CCN(CCCN2CC3C4c5ccccc5C(c5ccccc54)C3C2)CC1` (centres unmarked) [Example 86], 3 µM.
For the compound `Cc1ccc(N2CCN(CCCN3CC4C5c6ccccc6C(c6ccccc65)C4C3)CC2)cc1C` (centres unmarked) [Example 92], the concentration for half-maximal inhibition (IC50) was 2 µM.
The same measure, in the same setting: the result for `COc1ccc(N2CCN(CCCN3CC4C5c6ccccc6C(c6ccccc65)C4C3)CC2)cc1OC` (centres unmarked) [Example 93] reads 10 µM; that for `CC12c3ccccc3C(c3ccccc31)C1CN(CCCN3CCN(c4ccccc4)CC3)CC12` (centres unmarked) [Example 94], 7 µM.
On the same count and under the same terms, then `CC12c3ccccc3C(c3ccccc31)C1CN(CCCN3CCN(c4ccc(Cl)cc4)CC3)CC12` (centres unmarked) [Example 95], with 5 µM; and `CC12c3ccccc3C(c3ccccc31)C1CN(CCCN3CCN(c4ccc(F)cc4)CC3)CC12` (centres unmarked) [Example 96], with > 10 µM.
Same read-out and setting: then `OCC12c3ccccc3C(c3ccccc31)C1CN(CCCN3CCN(c4ccccc4)CC3)CC12` (centres unmarked) [Example 97], with 10 µM.
Compound `OCC12c3ccccc3C(c3ccccc31)C1CN(CCCN3CCN(c4ccc(F)cc4)CC3)CC12` (centres unmarked) [Example 98] showed a concentration for half-maximal inhibition (IC50) of 10 µM.
With `ClC12c3ccccc3C(c3ccccc31)C1CN(CCCN3CCN(c4ccccc4)CC3)CC12` (centres unmarked) [Example 99], the 50% inhibitory concentration (IC50) came out at 8 µM.

The assay is the same for the next values; noted with them: monocyte-free human T cells stimulated with PWM and 5-HT; 3H-thymidine incorporation; 7 days.
Turning to `CC12c3ccccc3C(C)(c3ccccc31)C1C(=O)N(CCCN3CCN(c4ccc(F)cc4)CC3)C(=O)C12` (centres unmarked) [Example 44], the IC50 was > 10 µM.

What is called IC50 is the midpoint of a concentration-inhibition curve. A lower IC50 goes with higher potency.
